The results in this text go back to patent US9402875B2, “Amidated dopamine neuron stimulating peptide restoration of mitochondrial activity” (University of Kentucky Research Foundation, priority 2006, dated 2016).

The subject of test [1] is mitochondria of substantia nigra and striatum. As to the kind of experiment: Mitochondrial State III respiration 28 days after bilateral intranigral DNSP-11. It counts as in vivo, rat. Particulars: 28 days post bilateral intranigral 30 μg. On the procedure: Six five-month-old male F344 rats received bilateral intranigral injections of 30 μg DNSP-11. Six age and sex-matched controls received injections of the same volume of vehicle (citrate buffer). Twenty-eight days after test material administration, the animals were euthanized by CO2 anesthesia and the brain samples rapidly dissected. The striatum and substantia nigra were isolated quickly and carefully using a rat brain matrix for F344 rats.
Mitochondrial respiration was assessed using a miniature Clark-type electrode, in a sealed, thermostatic and continuously stirred chamber. Mitochondria were added to the chamber to yield a final protein concentration of 1 mg/ml. The substrate concentrations were 5.0 mM/2.5 mM for glutamate/malate and pyruvate/malate or 10 mM for succinate+[…] rotenone or α-glycerophosphate. State 3 respiration was initiated by the addition of 150 ηmols ADP. The respiratory control ratio was calculated as respiration in the presence of ADP (state 3)/respiration in absence of ADP (state 4). ADP/0 ratios were determined by dividing the amount of ADP phosphorylated during State III respiration by the amount of oxygen consumed. NAD-linked substrates, e.g. glutamate and pyruvate, utilize complexes I, III, IV in their oxidation, succinate utilizes complexes II, III, IV and α-glycerophosphate ultilizes III, IV. […]

A further test has as its system MN9D cells. As to the kind of experiment: JC-1 mitochondrial membrane potential assay. Type of test: cell-based. On the procedure: (§1) MN9D cells and B65 cells were cultured in Dulbecco's Modified Eagle's Medium (DMEM; 11995 (containing pyridoxol HCl); Sigma, St. Louis, Mo.) supplemented with 10% fetal bovine serum (HyClone, Logan, Utah), 50 U/mL penicillin and streptomycin. For each assay the cells were treated with mitochondrial-specific environmental toxins, i.e., MPP+, rotenone, and/or TaClo, and with or without DNSP-11. After incubation with the toxins, the cells were plated on 24-well poly-D-lysine plates (50,000 cells/well) for TUNEL assay (as described below) or 100,000 cell/well for caspase-3 assay in DMEM medium with 1% (v/v) penicillin-streptomycin only (as described below).
(§2) MN9D and B65 cells were treated with either 50 nM, 100 nM, 250 nM, 500 nM, 2.5 μM or 5 μM rotenone, 50 nM, 100 nM, 250 nM 1-methyl-4-phenylpyridinium (MPP+), or 10 μM , 25 μM, 50 μM, 100 μM, 150 μM or […]-1,2,3,4-tetrahydro-β-carboline (TaClo), for 1 to 12 hours and then incubated at 37° C. in 5% CO2 following pretreatment (1 to 30 minutes) with or without 100 nM or 10 nM DNSP-11. After treatment with rotenone, MPP+ or TaClo and incubation with DNSP-11, the cells were incubated for 30 minutes at 37° C. in a 5% CO2 incubator in the presence of 10 μM of the green fluorescent JC-1 (5,5′, 6,6′-tetrachloro-1,1′,3,3′-tetraethylbenzimidazolyl-cabo-cyanine iodine, T-3168 (Invitrogen)) and then washed in Locke's solution. Optical measurements were acquired with excitation at 485 nm and emission at 527 nm, and 590 nm. The levels of fluorescence at each emission wavelengths were quantified and ratio of measurements was assessed. The pertinent data are given as mean±S.E.M. for mean optical measurements. The values are expressed as percent of the mean control values ±S.E.M. and analyzed using ANOVA.

In the next test the test system is B65 cells. As to the kind of experiment: JC-1 mitochondrial membrane potential assay. It counts as cell-based. How it is done: as §1, §2
The target in the next test is T1, GFRα1 (Homo sapiens, UniProt P56159).
T1 sequence (P56159 25-429): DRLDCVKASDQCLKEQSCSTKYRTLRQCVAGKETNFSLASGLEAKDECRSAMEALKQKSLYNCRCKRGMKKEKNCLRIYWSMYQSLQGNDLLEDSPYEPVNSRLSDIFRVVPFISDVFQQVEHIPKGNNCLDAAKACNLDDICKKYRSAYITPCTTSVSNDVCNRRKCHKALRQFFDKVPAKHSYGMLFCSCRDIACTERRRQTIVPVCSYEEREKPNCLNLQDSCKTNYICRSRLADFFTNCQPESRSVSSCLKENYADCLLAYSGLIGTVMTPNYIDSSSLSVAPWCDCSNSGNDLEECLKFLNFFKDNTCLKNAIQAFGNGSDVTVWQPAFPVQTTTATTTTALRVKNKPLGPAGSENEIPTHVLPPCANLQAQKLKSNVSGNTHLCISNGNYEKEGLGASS
Put plainly: Pull-down assay and ELISA with GFRα1. It counts as binding. The settings on record: pull-down with biotinylated DNSP-11; supported by ELISA. On the procedure:
Specifically, a solution of 25 μL GFRα1 (1 mg/mL) was incubated with 50 μL of Dynabeads® (Invitrogen) in wash and bind buffer (0.1 M sodium phosphate, pH 8.2, 0.01% ^Tween® 20) for 10 minutes at room temperature. The beads were then washed three times in 100 μl, of wash and bind buffer. 2 μg of GDNF was added and incubated for 1 hour at 4° C. 25 μL GFRα1 (1 mg/mL) was incubated with 40 μg of biotinylated DNSP-11 (bDNSP-11) for 1 hour at 4° C. They were then added to 50 μL of hydrophilic streptavidin magnetic beads (New England Biolabs) and incubated for an hour at 4° C.
Moreover, the absence of interaction between GFRα1 with DNSP-11 is supported by ELISA.
A general note: In an ELISA, binding on a coated surface is turned into a signal by an enzyme label.

The mark [2] stands for this setting: MPP+, rotenone or TaClo 1 to 12 hours, pretreatment with 10 nM or 100 nM DNSP-11.

“Also recorded” adds a separate entry of the source. Ends that are not written are not given here.

For “PPEAPAEDRSL-NH2 [DNSP-11, PPEAPAEDRSL-amide]”, the “State III oxygen consumption / oxidative phosphorylation vs vehicle” value in test [1] (striatum) was “reached statistical significance; also recorded: increased”; in test [1] (substantia nigra, n=2), “trend towards an increase; also recorded: increased”. Moreover, the “mitochondrial potential, protection from toxins” value with MN9D cells (setting [2]) and with B65 cells (setting [2]) was “protects the cells; also recorded: significant protection” throughout. The “mitochondrial potential, DNSP-11 alone” value in the test on MN9D cells (no toxin) and in the test with B65 cells (no toxin) was “no significant effect” each time. The “interaction with GFRα1” value on GFRα1 is listed as “do not interact”.
